Activity calls are given as the source filed them.
How the values were obtained:
Tumor necrosis factor = Tumor necrosis factor (Homo sapiens, UniProt P01375); assay: TNFa-triggered NF-kB activation inhibitors, SAR follow-up, cell-based, revised (AID 2337); format: functional
[1] = target: Nucleotide-binding oligomerization domain-containing protein 1 (Homo sapiens, UniProt Q9Y239); assay: NOD1 signaling inhibitors, SAR follow-up, revised (AID 2333); format: functional
HEK293 = assay: cells; details: Homo sapiens;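 also: cells exposed to compound for 14 hours overnight before viability readout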
Mu-type opioid receptor = Mu-type opioid receptor (Homo sapiens, UniProt P35372); assay: SAR Analysis of Antagonists of the MOR Receptor using an Image-Based Assay - Set 3. [Related pubchem assays (depositor defined):AID1777, AID1785, AID1786, AID1966, AID2133, AID2136, AID2284, AID2285, AID2420]; format: functional
Chain of Mu-type opioid receptor (P35372 whole entry): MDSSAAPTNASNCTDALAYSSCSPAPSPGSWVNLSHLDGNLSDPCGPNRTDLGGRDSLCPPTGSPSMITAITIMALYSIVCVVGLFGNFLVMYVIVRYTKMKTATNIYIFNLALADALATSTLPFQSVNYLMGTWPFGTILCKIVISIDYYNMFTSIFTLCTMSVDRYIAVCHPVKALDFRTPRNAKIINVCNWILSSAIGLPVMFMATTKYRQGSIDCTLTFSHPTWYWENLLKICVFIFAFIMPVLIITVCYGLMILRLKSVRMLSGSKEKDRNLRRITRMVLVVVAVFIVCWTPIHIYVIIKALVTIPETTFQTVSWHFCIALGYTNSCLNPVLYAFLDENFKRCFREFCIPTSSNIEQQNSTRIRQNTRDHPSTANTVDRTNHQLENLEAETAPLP

[2] = target: T1, Kappa-type opioid receptor (Homo sapiens, UniProt P41145); assay: SAR analysis of small molecule antagonists of the kappa opioid receptor via a luminescent beta-arrestin assay - Set 4. [Related pubchem assays (depositor defined):AID1777, AID1778, AID1785, AID1786, AID1966, AID2133, AID2136, AID2285]; format: functional
T1 sequence (P41145 whole entry): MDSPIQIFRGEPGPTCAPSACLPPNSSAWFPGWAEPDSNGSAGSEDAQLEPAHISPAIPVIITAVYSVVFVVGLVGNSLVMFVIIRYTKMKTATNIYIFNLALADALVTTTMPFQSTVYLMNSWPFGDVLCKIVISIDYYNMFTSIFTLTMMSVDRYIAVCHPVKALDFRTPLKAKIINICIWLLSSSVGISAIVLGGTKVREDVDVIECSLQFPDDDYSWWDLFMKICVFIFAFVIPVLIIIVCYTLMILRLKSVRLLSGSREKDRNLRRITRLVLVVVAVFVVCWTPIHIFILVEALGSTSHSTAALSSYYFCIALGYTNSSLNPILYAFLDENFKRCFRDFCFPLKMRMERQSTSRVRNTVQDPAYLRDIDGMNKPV

[3] = target: Delta-type opioid receptor (Homo sapiens, UniProt P41143); assay: SAR Analysis of Antagonists of the DOR Receptor using an Image-Based Assay - Set 3. [Related pubchem assays (depositor defined):AID1777, AID1785]; format: functional;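 also: U2OS cells expressing DOR1 and beta-arrestin GFP stimulated with 100 nM SNC80; imaging of GFP-tagged beta-arrestin moving into spots after receptor activation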
Chain of Delta-type opioid receptor (P41143 whole entry): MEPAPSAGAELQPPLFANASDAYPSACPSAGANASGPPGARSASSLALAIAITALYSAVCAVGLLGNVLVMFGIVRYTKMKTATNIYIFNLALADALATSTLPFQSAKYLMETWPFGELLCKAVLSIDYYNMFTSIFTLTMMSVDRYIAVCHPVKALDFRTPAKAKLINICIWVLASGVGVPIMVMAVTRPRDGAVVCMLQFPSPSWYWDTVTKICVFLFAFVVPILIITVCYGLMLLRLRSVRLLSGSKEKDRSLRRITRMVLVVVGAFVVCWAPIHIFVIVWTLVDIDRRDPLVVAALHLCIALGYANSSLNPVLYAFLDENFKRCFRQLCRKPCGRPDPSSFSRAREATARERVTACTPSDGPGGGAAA

[4] = target: T1, Kappa-type opioid receptor; assay: SAR analysis of Antagonists of the Kappa Opioid Receptor (KOR) using an Image-Based Assay - Set 4. [Related pubchem assays (depositor defined):AID1777, AID1785]; format: functional
[5] = target: T1, Kappa-type opioid receptor; assay: SAR analysis of small molecule antagonists of the kappa opioid receptor via a luminescent beta-arrestin assay - Set 3. [Related pubchem assays (depositor defined):AID1777, AID1778, AID1785, AID1786, AID1966, AID2133, AID2136, AID2285, AID2495]; format: functional
[6] = target: T1, Kappa-type opioid receptor; assay: SAR analysis of Antagonists of the Kappa Opioid Receptor (KOR) using an Image-Based Assay - Set 3. [Related pubchem assays (depositor defined):AID1777, AID1785]; format: functional
Leucine aminopeptidase = target: T2, Leucine aminopeptidase (Plasmodium falciparum 3D7, UniProt Q8IL11); assay: P. falciparum M17LAP inhibitors, primary screen, biochemical, fluorogenic H-Leu-NHMec substrate, 1536-well (AID 1619); format: functional
T2 sequence (Q8IL11 whole entry): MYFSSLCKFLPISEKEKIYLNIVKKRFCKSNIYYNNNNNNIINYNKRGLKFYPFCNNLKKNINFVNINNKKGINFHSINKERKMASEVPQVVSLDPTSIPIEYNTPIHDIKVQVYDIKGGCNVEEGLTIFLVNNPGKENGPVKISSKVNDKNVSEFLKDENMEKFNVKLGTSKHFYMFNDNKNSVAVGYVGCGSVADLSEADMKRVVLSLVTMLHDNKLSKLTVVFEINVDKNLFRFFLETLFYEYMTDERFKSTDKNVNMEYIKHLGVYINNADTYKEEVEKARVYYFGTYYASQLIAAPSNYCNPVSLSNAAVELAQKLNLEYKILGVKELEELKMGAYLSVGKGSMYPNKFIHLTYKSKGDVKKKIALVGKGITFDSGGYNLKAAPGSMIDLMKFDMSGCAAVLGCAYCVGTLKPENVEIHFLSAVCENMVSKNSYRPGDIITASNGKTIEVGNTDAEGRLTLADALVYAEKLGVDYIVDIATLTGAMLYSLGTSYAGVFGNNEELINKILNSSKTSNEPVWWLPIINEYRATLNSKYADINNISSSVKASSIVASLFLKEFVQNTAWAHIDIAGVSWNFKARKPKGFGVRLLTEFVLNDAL

[7] = target: T3, RNA-binding protein pos-1 (Caenorhabditis elegans, UniProt G5EF15); assay: inhibitors of POS-1/mex-3 RNA binding, dose response, biochemical, fluorescence polarization (AID 1964);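 also: purified POS-1 fused to maltose binding protein made in E. coli; potency of compounds blocking POS-1 binding to fluorescent RNA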
T3 sequence (G5EF15 whole entry): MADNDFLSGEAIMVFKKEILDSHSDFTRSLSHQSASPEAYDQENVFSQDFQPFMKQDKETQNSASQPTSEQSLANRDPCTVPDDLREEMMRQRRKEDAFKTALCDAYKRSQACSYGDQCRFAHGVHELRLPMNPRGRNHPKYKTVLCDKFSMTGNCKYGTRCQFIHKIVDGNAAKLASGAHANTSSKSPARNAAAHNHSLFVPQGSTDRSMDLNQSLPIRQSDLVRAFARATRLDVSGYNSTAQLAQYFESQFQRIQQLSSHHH

SUMO-activating enzyme [8] = target: T4, SUMO-activating enzyme (Homo sapiens, UniProt Q9UBT2); assay: SUMOylation inhibitor hit validation, confirmation, SUMOylation inhibitor project, biochemical, AlphaScreen (AID 2018); format: functional
T4 sequence (Q9UBE0 whole entry): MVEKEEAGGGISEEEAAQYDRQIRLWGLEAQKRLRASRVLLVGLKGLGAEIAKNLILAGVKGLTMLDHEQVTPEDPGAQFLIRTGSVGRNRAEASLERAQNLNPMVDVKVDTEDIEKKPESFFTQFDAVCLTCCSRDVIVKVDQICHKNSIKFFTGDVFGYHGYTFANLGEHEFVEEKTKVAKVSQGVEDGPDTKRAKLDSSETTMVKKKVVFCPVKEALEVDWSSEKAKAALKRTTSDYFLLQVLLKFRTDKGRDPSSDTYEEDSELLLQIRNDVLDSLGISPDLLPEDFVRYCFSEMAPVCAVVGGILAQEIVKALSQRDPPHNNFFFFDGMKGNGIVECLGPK
T4 sequence (Q9UBT2 whole entry): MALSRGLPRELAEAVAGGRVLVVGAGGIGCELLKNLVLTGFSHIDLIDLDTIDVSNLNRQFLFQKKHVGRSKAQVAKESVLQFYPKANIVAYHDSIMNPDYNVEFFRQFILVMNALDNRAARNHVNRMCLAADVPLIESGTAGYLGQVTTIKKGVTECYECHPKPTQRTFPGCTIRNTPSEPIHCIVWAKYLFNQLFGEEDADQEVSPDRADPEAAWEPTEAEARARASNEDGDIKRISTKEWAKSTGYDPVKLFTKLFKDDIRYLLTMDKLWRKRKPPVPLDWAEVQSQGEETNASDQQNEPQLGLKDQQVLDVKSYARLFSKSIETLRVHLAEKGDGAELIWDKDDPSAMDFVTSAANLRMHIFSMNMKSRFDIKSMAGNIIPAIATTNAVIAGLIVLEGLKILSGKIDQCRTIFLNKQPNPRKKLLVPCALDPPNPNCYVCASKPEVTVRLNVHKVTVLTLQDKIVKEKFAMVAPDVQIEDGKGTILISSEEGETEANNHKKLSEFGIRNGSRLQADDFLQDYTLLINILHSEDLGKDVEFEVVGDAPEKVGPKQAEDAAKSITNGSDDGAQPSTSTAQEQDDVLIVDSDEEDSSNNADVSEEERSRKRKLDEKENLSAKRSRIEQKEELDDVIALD

[9] = target: T5, Zinc finger protein mex-5 (Caenorhabditis elegans, UniProt Q9XUB2); assay: MEX-5/TCR-2 RNA interaction inhibitors, dose response, biochemical, C. elegans, fluorescence polarization (AID 1960)
T5 sequence (Q9XUB2 whole entry): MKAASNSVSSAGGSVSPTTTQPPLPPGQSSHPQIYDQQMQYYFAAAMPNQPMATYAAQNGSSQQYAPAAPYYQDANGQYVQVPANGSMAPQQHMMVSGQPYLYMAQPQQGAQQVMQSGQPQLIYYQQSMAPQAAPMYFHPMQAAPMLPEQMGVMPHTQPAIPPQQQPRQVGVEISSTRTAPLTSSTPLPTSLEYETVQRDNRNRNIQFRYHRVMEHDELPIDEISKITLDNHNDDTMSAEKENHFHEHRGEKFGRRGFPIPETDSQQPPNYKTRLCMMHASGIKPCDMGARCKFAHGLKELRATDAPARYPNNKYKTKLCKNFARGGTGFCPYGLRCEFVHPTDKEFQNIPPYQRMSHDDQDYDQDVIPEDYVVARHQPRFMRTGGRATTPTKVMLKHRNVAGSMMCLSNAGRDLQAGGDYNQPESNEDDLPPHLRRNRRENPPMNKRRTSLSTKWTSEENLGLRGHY

SUMO-activating enzyme [10] = target: T4, SUMO-activating enzyme; assay: inhibitors of in vitro SUMOylation cascade, primary screen, biochemical, HTRF, uHTS (AID 2006); format: protein-complex assay
[11] = target: Induced myeloid leukemia cell differentiation protein Mcl-1 (Homo sapiens, UniProt Q07820); format: functional
Chain of Induced myeloid leukemia cell differentiation protein Mcl-1 (Q07820 whole entry): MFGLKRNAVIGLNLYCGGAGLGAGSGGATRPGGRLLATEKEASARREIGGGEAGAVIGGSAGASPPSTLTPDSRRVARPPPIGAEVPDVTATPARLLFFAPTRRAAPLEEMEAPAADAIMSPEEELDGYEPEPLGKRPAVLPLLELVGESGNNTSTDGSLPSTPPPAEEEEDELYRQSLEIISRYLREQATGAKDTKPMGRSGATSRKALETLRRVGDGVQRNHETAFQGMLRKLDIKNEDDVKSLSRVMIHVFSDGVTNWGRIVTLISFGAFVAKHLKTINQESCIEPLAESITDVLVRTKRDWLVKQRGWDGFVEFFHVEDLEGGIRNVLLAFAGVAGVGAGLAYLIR

[12] = target: Eukaryotic translation initiation factor 4E (Mus musculus, UniProt P63073); assay: eIF4E–eIF4G protein interaction inhibitors, dose response, biochemical, TR-FRET (AID 855); format: functional;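 also: potency for disrupting eIF4E binding to eIF4GI seen as loss of FRET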
Chain of Eukaryotic translation initiation factor 4E (P63073 whole entry, the tested form may be a part): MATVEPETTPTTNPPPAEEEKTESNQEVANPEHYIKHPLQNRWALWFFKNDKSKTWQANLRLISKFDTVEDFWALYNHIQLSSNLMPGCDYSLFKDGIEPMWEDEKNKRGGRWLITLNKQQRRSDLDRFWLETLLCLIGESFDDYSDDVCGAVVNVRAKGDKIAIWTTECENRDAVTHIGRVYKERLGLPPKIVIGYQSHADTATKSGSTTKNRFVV

[13] = target: 1-acylglycerol-3-phosphate O-acyltransferase ABHD5/Perilipin-5 (Homo sapiens, UniProt Q00G26+Q8WTS1); assay: Luminescence-based biochemical high throughput dose response assay for inhibitors of the interaction of the lipase co-activator protein, abhydrolase domain containing 5 (ABHD5) with perilipin-5 (MLDP; PLIN5) (2K validation set). [Related pubchem assays (depositor defined):AID493035, AID493241]
Chain of 1-acylglycerol-3-phosphate O-acyltransferase ABHD5/Perilipin-5 (Q00G26 whole entry, the tested form may be a part): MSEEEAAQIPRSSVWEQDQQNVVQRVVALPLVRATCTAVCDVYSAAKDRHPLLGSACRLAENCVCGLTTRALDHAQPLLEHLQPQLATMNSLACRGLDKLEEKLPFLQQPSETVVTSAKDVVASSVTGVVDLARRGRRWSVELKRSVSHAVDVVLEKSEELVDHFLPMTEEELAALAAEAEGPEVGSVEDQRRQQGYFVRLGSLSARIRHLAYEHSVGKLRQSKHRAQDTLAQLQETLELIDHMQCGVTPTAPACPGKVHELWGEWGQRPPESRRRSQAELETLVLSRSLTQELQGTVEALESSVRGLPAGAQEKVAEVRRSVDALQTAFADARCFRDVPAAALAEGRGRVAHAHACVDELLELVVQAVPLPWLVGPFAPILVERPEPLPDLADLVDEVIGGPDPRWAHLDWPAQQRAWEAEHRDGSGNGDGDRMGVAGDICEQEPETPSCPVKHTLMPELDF
Chain of 1-acylglycerol-3-phosphate O-acyltransferase ABHD5/Perilipin-5 (Q8WTS1 whole entry, the tested form may be a part): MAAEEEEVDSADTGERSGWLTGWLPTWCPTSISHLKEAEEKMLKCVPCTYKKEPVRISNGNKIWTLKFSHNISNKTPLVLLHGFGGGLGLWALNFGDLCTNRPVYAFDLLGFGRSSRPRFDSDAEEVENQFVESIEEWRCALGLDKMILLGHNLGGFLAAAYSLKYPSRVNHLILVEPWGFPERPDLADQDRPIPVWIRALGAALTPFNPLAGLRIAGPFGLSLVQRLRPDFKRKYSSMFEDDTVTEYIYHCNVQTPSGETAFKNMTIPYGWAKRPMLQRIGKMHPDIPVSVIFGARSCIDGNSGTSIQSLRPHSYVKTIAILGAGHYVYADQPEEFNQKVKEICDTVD

Perilipin-1/ABHD5 = Perilipin-1/ABHD5 (Homo sapiens, UniProt O60240+Q8WTS1); assay: Luminescence-based biochemical high throughput dose response assay for inhibitors of the interaction of the lipase co-activator protein, abhydrolase domain containing 5 (ABHD5) with perilipin-1 (PLIN1) (2K validation set). [Related pubchem assays (depositor defined):AID493027, AID493057]
[14] = Luminescence Cell-Based Dose Retest to Confirm Inhibitors of Cancer Stem Cells. [Related pubchem assays (depositor defined):AID2717, AID2721]; format: functional; details: Homo sapiens
[15] = inhibition of K1F phage lysis, E. coli UTI89, bacterial capsule biogenesis inhibitors, alamar blue (AID 488966); format: functional
[16] = Intein inhibitors as potential Tuberculosis drugs, a cytotoxicity screen. [Related pubchem assays (depositor defined):AID2221, AID2223, AID434968, AID435010, AID449749, AID449750, AID489010]; format: functional
[17] = target: T6, Replicative DNA helicase DnaB (Mycobacterium tuberculosis, UniProt P9WMR3); assay: DnaB intein splicing inhibitors, dose response, biochemical, cell-free fluorescence (AID 449749); format: functional
T6 sequence (P9WMR3 whole entry): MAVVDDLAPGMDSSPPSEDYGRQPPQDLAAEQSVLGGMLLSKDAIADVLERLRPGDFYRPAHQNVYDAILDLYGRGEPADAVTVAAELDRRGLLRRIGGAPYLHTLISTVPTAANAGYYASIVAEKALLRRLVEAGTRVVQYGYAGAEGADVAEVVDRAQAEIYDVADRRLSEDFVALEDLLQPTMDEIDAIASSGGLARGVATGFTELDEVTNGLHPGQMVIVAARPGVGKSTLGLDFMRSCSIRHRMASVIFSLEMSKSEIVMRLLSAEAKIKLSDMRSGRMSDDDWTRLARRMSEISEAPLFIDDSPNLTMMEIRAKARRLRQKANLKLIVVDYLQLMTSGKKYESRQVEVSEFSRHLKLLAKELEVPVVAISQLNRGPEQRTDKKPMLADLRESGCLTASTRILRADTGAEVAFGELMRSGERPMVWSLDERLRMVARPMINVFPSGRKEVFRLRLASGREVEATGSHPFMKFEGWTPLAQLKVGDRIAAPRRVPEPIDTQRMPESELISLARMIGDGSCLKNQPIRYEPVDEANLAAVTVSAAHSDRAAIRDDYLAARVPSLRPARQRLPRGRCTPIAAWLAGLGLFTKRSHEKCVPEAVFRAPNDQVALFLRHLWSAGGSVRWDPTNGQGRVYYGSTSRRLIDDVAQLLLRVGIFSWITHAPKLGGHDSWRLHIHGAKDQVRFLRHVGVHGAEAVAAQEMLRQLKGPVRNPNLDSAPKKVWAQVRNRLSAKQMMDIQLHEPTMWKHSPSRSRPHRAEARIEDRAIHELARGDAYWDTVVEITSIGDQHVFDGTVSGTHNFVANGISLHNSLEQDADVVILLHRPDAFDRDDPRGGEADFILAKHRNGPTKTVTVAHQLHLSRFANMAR

Vero = Vero cell cytotoxicity, cytotoxicity control for flavivirus capping enzyme inhibitors (AID 588742); format: functional; details: Chlorocebus sabaeus
Protein RecA = target: T7, Protein RecA (Mycobacterium tuberculosis, UniProt P9WHJ3); assay: Fluorescence Cell-Free Homogeneous Dose Retest to Identify Inhibitors of RecA-Intein Splicing Activity. [Related pubchem assays (depositor defined):AID2097, AID2223, AID489010, AID492950]; format: functional
T7 sequence (P9WHJ3 whole entry): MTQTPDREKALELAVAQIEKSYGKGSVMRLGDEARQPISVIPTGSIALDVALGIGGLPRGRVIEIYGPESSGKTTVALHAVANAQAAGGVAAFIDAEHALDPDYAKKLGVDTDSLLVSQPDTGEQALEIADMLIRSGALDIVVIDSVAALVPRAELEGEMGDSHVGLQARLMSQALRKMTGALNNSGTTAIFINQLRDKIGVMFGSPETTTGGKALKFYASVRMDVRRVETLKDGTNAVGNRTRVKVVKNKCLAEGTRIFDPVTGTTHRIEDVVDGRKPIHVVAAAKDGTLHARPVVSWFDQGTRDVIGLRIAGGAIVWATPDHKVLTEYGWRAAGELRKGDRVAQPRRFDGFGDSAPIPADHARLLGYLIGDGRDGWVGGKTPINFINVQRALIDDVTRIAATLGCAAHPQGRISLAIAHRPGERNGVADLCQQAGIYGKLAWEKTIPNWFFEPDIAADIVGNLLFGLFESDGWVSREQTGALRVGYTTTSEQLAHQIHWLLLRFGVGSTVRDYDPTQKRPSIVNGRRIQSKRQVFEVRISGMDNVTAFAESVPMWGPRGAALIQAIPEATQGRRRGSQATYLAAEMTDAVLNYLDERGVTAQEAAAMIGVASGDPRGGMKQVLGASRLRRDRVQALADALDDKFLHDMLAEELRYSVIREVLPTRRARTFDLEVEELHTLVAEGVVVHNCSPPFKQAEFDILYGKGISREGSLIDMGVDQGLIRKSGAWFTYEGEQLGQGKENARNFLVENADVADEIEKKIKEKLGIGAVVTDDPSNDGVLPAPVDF

INS1 = assay: beta cell apoptosis inhibitors, cytokine rescue, dose response, luminescence, retest (AID 449756); format: functional, cell-based; details: Rattus norvegicus;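 also: cell death triggered by IL-1 beta plus TNF-alpha plus IFN-gamma mixture; protective hits raise ATP signal compared with cytokine alone wells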
Genome polyprotein = Genome polyprotein (dengue virus type 2, UniProt P29990); assay: Dengue-2 NS5 methyltransferase inhibitors, primary screen, biochemical, confirmation dose response (AID 588689); format: functional
Chain of Genome polyprotein (P29990 2492-3391 limits assumed): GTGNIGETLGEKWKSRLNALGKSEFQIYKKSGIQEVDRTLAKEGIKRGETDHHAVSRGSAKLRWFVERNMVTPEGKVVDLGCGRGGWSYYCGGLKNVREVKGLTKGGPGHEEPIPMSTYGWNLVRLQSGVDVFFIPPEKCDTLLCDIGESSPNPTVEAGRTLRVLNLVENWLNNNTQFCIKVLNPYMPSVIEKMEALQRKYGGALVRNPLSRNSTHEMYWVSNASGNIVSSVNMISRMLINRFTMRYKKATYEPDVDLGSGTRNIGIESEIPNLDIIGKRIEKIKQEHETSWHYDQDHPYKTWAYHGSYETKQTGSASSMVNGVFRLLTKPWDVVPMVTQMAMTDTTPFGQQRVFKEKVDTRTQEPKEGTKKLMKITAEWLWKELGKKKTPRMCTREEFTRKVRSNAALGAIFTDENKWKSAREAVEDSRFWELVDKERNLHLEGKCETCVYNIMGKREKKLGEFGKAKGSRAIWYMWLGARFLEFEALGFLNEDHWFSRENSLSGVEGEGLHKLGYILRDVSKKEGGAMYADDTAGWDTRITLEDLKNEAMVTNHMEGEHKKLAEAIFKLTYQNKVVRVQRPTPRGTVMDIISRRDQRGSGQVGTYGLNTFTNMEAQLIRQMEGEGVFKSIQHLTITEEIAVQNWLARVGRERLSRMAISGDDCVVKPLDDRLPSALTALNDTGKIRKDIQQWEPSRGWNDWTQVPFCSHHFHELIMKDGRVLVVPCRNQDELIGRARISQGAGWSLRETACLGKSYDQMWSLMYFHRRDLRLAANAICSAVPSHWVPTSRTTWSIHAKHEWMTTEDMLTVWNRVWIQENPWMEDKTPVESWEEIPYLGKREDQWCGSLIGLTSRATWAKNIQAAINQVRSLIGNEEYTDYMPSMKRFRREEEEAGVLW

[18] = HepG2 cell cytotoxicity, dose response, cytotoxicity control, ATP luminescence, cherry-pick, activator set 2 (AID 1053143); format: functional, cell-based
T-cell = assay: inhibitors of CD8+ T cell–vesicle binding, dose response, mouse 2C CD8+ T cells, flow cytometry (AID 485284); format: functional

Chain of Tumor necrosis factor (P01375 whole entry, the tested form may be a part): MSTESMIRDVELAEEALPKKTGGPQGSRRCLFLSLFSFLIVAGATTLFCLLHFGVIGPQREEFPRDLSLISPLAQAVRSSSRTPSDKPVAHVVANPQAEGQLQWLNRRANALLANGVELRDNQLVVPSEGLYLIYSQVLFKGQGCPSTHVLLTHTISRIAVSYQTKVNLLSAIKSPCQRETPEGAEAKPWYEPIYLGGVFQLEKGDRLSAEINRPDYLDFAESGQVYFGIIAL

CC1CCc2c(sc(NC(=O)c3ccc(Cl)cc3)c2C(=O)O)C1 (stereo unspecified)
IC50 (Tumor necrosis factor): 4.41 µM (active) | IC50 [1]: 1.37 µM (active) | IC50 (HEK293): 5.2 µM (active)

CCC(C)(C)c1ccc(S(=O)(=O)NCc2ccc(C(=O)NCCN(Cc3ccccc3)C(C)C)cc2)cc1
IC50 (Mu-type opioid receptor): > 32 µM (inactive) | IC50 [2]: 1.19 µM (active) | IC50 [3]: > 32 µM (inactive) | IC50 [4]: 0.57 µM (active)

CCc1ccc(S(=O)(=O)NCc2ccc(C(=O)NCCN(CC)Cc3ccccc3)cc2)cc1
IC50 (Mu-type opioid receptor): 19.5 µM (inactive) | IC50 [3]: > 32 µM (inactive) | IC50 [5]: 14.4 µM (inactive) | IC50 [6]: 1.99 µM (active)

CC1=C(C#N)C(=O)NC(=O)/C1=C\c1ccc(-c2ccc(C)cc2[N+](=O)[O-])o1
IC50 (Leucine aminopeptidase): 13.1 µM (active) | EC50 [7]: 36.4 µM (active) | IC50 (SUMO-activating enzyme [8]): 5.46 µM (active) | EC50 [9]: 21.8 µM (active) | IC50 (SUMO-activating enzyme [10]): 35.6 µM (active) | IC50 [11]: 2.68 µM (active) | IC50 [12]: 50 µM (inactive)

COC(=O)[C@@H](N)CS
IC50 [13]: 4.64 µM (active) | IC50 (Perilipin-1/ABHD5): 7.34 µM (active)

O=C(N/N=C/c1cccc(O)c1)c1ccc(COc2ccccc2Br)cc1
AC50 [14]: 4.82 µM (active) | IC50 [15]: > 150 µM (active)

COC(=O)c1sc(-c2ccc(C(C)(C)C)cc2)cc1NC(=O)/C=C/C(=O)O
AC50 [14]: 3.96 µM (active) | CC50 [16]: 11.5 µM (active) | AC50 [17]: 2.55 µM (active) | CC50 (Vero): 14.1 µM (active) | EC50 (Protein RecA): 0.701 µM (active) | AC50 (INS1): 4.68 µM (active) | IC50 (Genome polyprotein): 65.2 µM (active) | AC50 [18]: 23.4 µM (active)

CCOC(=O)c1c(C=O)c2ccccc2n1CC
EC50 (T-cell): 27.8 µM (inactive)

Reference: ChEMBL document CHEMBL1201862, “PubChem BioAssay data set” (2004)
